Drawing on patent US20100261699A1, “N-PYRAZOLE-2-PYRIDINE CARBOXAMIDE DERIVATIVE” (Banyu Pharmaceutical Co., Ltd., priority 2007, published 2010), this text covers Emax and EC50 for nine compounds.

By Emax is commonly meant the size of the effect at its maximum, as opposed to the concentration needed. Broadly, the EC50 is the concentration that produces a half-maximal response.

This experiment deals with T1, recombinant human liver GK (Homo sapiens, UniProt P35557).
T1 construct: made in house; host or cells: E. coli
T1 sequence (P35557 1-466 isoform P35557-2): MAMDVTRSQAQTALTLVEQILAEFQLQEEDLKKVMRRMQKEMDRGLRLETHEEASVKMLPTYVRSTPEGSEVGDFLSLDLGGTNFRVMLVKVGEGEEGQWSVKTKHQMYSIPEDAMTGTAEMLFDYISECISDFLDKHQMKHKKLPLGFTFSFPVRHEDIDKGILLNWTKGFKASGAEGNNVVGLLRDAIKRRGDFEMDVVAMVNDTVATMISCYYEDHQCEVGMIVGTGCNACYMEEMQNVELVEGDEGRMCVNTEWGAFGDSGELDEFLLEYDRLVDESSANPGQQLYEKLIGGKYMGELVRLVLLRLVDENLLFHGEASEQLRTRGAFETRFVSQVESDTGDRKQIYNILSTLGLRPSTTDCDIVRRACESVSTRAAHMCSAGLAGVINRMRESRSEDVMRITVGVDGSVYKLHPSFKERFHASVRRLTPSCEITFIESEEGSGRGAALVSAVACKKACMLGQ
In words: Glucokinase-activating effect (Thio-NADH production via G6PDH-coupled assay). It counts as biochemical. The settings on record: final glucose concentration 2.5 mM, 30° C.; for Emax: OD level of DMSO control taken as 100%. Here is the method: The excellent glucokinase-activating effect of the compound represented by the Formula (I) can be determined by a method described in references (e.g., Diabetes, Vol. 45, pp. 1671-1677, 1996, etc.) or by a method based on the same.
The glucokinase activity is determined not by directly measuring glucose-6-phosphate, but by measuring the level of Thio-NADH produced when a reporter enzyme, glucose-6-phosphate dehydrogenase, produces phosphogluconolactone from glucose-6-phosphate.
A recombinant human liver GK used in this assay was expressed in E. coli as a FLAG fusion protein, and then purified by ANTIFLAG M2 AFFIMTY GEL (Sigma).
The assay was carried out using a flat-bottom 96-well plate at 30° C. First, 69 μl of assay buffer (25 mM Hepes Buffer:pH=7.2, 2 mM MgCl2, 1 mM ATP, 0.5 mM TNAD, 1 mM dithiothreitol) was dispensed, and 1 μl of DMSO solution of the compound or DMSO as a control was added thereto. Subsequently, 20 μl of enzyme mixture (FLAG-GK, 20 U/ml G6PDH) that had been cooled in ice was dispensed, and 10 μl of 25 mM glucose, a substrate, was added thereto to initiate reaction (final glucose concentration=2.5 mM).
After the start of the reaction, an increase in the absorbance at 405 nm was measured for 12 minutes at 30 second intervals, and the increment for the first 5 minutes was used for evaluation of the compound. FLAG-GK was added so that the increment of absorbance in 5 minutes in the presence of 1% DMSO was from 0.04 to 0.06.
Taking the OD level of the DMSO control as 100%, the OD level of the test compound at different concentrations was determined From the OD level at each concentration, Emax (%) and EC50 (μM) were calculated and used as an index of the GK-activating ability of the compound.

Take `CN(C)CCOc1ccc(Sc2ccc(Sc3nncn3C)nc2C(=O)Nc2ccn(C)n2)cn1` [Example 9]: the Emax amounted to 880% and the EC50 is 180 nM. `CN1CC(Oc2ccc(Sc3ccc(Sc4nncn4C)nc3C(=O)Nc3ccn(C)n3)cc2)C1` [Example 4, 3-({4-[(1-methylazetidin-3-yl)oxy]phenyl}thio)-N-(1-methyl-1H-pyrazol-3-yl)-6-[(4-methyl-4H-1,2,4-triazol-3-yl)thio]pyridine-2-carboxamide]: the EC50 was found to be 70 nM. Same read-out and setting: the figure for `Cn1ccc(NC(=O)c2nc(Sc3nncn3C)ccc2Sc2ccc(OCCN3CCCC3)cc2)n1` [Example 3] is 80 nM.

Regarding `CN(C)CCOc1ccc(Sc2ccc(Sc3nncn3C)nc2C(=O)Nc2ccn(C)n2)cc1` [Example 1, 3-({4-[2-(dimethylamino)ethoxy]phenyl}thio)-N-(1-methyl-1H-pyrazol-3-yl)-6-[(4-methyl-4H-1,2,4-triazol-3-yl)thio]pyridine-2-carboxamide], the maximal response (Emax) came out at 890% and the EC50 was found to be 120 nM. `CC(C)N1CC(Oc2ccc(Sc3ccc(Sc4nncn4C)nc3C(=O)Nc3ccn(C)n3)cc2)C1` [Example 6]: the EC50 was determined as 150 nM. On to `CCN1CC(COc2ccc(Sc3ccc(Sc4nncn4C)nc3C(=O)Nc3ccn(C)n3)cc2)C1` [Example 7, 3-({4-[(1-ethylazetidin-3-yl)methoxy]phenyl}thio)-N-(1-methyl-1H-pyrazol-3-yl)-6-[(4-methyl-4H-1,2,4-triazol-3-yl)thio]pyridine-2-carboxamide], for which the maximal response (Emax) is 930% and the EC50 was 60 nM. `CCN(CC)CCOc1ccc(Sc2ccc(Sc3nncn3C)nc2C(=O)Nc2ccn(C)n2)cc1` [Example 2]: the EC50 was 200 nM.

`CC(C)N1CC(COc2ccc(Sc3ccc(Sc4nncn4C)nc3C(=O)Nc3ccn(C)n3)cc2)C1` [Example 8, 3-({4-[(1-isopropylazetidin-3-yl)methoxy]phenyl}thio)-N-(1-methyl-1H-pyrazol-3-yl)-6-[(4-methyl-4H-1,2,4-triazol-3-yl)thio]pyridine-2-carboxamide]: the maximal response (Emax) came to 960% and the EC50 is 80 nM.

For `CCN1CC(Oc2ccc(Sc3ccc(Sc4nncn4C)nc3C(=O)Nc3ccn(C)n3)cc2)C1` [Example 5], the 50% effective concentration (EC50) came to 120 nM.
